Experimental findings from ChEMBL document CHEMBL1151696 (Bioorg Med Chem, 2008) are described below.

Activity calls are given as the source filed them. No cut-off for these calls is given here.

The assay concerns Vaccinia virus. Type of assay: functional, organism-based. Particulars: Orthopoxvirus vaccinia.

Consider `NCC12CC3CC(CC1C3)C2`, for which the outcome was inactive.
Turning to `CC(N)C12CC3(C)CC1CC3(C)C2` (stereo unspecified), the outcome was inactive.
The value for `CN(C)CC12CC3(C)CC1CC3(C)C2` was “inactive”; that for `CNCC12CC3CC(CC1C3)C2` was “inactive”; that for `CNC12CC3(C)CC1CC3(C)C2` was “inactive”.
The same measure for `CNC12CC3CC(CC1C3)C2`: “inactive”.
With `CC12CC3CC1(C)CC3(N)C2`, the result was inactive.
The value for `CC12CC3CC1(C)CC3(NCc1ccccc1)C2` was “inactive”; that for `c1csc(CNC23CC4CC(CC2C4)C3)c1` was “inactive”; that for `CN(C)C12CC3CC(CC1C3)C2` was “inactive”.
With `CC12CC3CC1(C)CC3(CNCc1ccccc1)C2`, the result was inactive.
The value for `CC12CC3CC1(C)CC3(CN)C2` was “inactive”; that for `CNCC12CC3(C)CC1CC3(C)C2` was “inactive”; that for `CC12CC3CC1(C)CC3(NCc1cccs1)C2` was “inactive”.
The value for `CN(Cc1ccccc1)CC12CC3CC(CC1C3)C2` was “inactive”; that for `CC12CC3CC1(C)CC3(CNC(=N)N)C2` was “inactive”; that for `CN(C)CC12CC3CC(CC1C3)C2` was “inactive”.
The same measure for `CN(Cc1ccccc1)C12CC3CC(CC1C3)C2`: “inactive”; for `c1ccc(CNC23CC4CC(CC2C4)C3)cc1`: “inactive”; for `COc1ccc(CNC23CC4CC(CC2C4)C3)cc1`: “inactive”.
For `CN(Cc1ccccc1)C12CC3(C)CC1CC3(C)C2`, the outcome was inactive.
The same measure for `CC12CC3CC1(C)CC3(N(Cc1ccccc1)Cc1ccccc1)C2`: “inactive”; for `COc1ccccc1CNC12CC3CC(CC1C3)C2`: “inactive”; for `C1CCN(C23CC4CC(CC2C4)C3)CC1`: “inactive”.
Turning to `Fc1ccc(CNC23CC4CC(CC2C4)C3)cc1`, the outcome was inactive.
The same measure for `c1ccc(CNCC23CC4CC(CC2C4)C3)cc1`: “inactive”.
The same measure for `COc1cccc(CNC23CC4CC(CC2C4)C3)c1`: “inactive”; for `CC12CC3CC1(C)CC3(CN1CCCCC1)C2`: “inactive”; for `CN(Cc1ccccc1)CC12CC3(C)CC1CC3(C)C2`: “inactive”.
Regarding `N=C(N)NCC12CC3CC(CC1C3)C2`, the outcome was inactive.
The same measure for `CN(C)C12CC3(C)CC1CC3(C)C2`: “inactive”.
